Tests used:
[1] = biological target: HLA-DRB1*1101 (Homo sapiens, UniProt P01903+P01911, A100R/A169T/A87E/I96F/K41T/L162R/M171V/P40S/Q125H/Q178H/Q39Y/Q99D/R42S/S66Y/T262R/V115G/W38E); experiment: Peptide-MHCII competition binding assay; conditions: competition ELISA, pH 5.9, peptide 90.000nM – 0.9nM, HLA-DRB1 30 nM, biotinylated peptide 15nM, duplicate wells; ratios below 10 = good binding; reference peptide […]
Experimental: (§1) Quantitative peptide-MHCII competition binding assays were carried out to determine binding avidities of the 18 20-mer FVIII peptides to 6 HLA-DRB1. Data are presented as ratio between reference peptide IC50/FVIII-peptide IC50 tested. Briefly, non-biotinylated FVIII peptides have been diluted at a concentration of 20 mM in DMSO. 10-µl aliquots of serially diluted (90.000nM – 0.9nM in n-Octyl b-D-Glucopyranoside, 2.5 mg/ml in 1x phosphate buffer, pH 5.9) of non-biotinylated FVIII peptides, were added to duplicate wells of 96-well polypropylene plates. Serially diluted non-FVIII reference peptides known to bind to the specific HLA-DRB1 were added to separate wells as positive controls. Next, the biotinylated peptide at a concentration of 2mM was use to prepare 1000-fold pre-dilution to reach a final concentration of 15nM. The HLA-DRB1 proteins were diluted to 30 nM in n-Octyl β-D-Glucopyranoside, 2.5 mg/ml in 1x phosphate buffer, pH 5.9. […] SA-HRP (diluted 5000x in 1xPBS 0.1% Tween20) was added to each well. The plates were covered and incubated at room temperature for 60 min […] and washed. TMB (100 μl/well) was then added, and the plates were incubated at room temperature for 15-30 min. ELISA stopping solution (0.5M H2SO4) was added and then read on a FLUOstar OPTIMA fluorometer. Sigmoidal binding curves were simulated and IC50 values calculated for the FVIII peptides, based on their competition with the reference peptides for each HLA-DRB1. Data were reported as the ratio between the values of the tested peptide and of the reference peptide. Ratios below 10 correspond to good biding affinity.

[2] = biological target: HLA-DRB1*1501 (Homo sapiens, UniProt P01903+P01911); experiment: Peptide-MHCII competition binding assay; conditions: competition ELISA, pH 5.9, peptide 90.000nM – 0.9nM, HLA-DRB1 30 nM, biotinylated peptide 15nM, duplicate wells; ratios below 10 = good binding; reference peptide ENPVVHFFKNIVTPR
Experimental: as §1

[3] = biological target: HLA-DRB1*0101 (Homo sapiens, UniProt P01903+P01911, A100R/D57E/F55L/F60I/F76Y/I96L/L162R/M171V/P40L/Q125E/R42F/V115G/Y59C); experiment: Peptide-MHCII competition binding assay; conditions: competition ELISA, pH 5.9, peptide 90.000nM – 0.9nM, HLA-DRB1 30 nM, biotinylated peptide 15nM, duplicate wells; ratios below 10 = good binding; reference peptide […]
Experimental: as §1

[4] = test system: CD4 T cells from healthy donors; experiment: HLA restriction and FVIII specificity IFN-γ ELISPOT of T cell lines raised with the pool of 18 peptides (four donors); format: cell-based, human; set-up: key to Protein specificty: +: positive T cell responses to both the full-length FVIII protein (protein specificity); conditions: for intensity (%): four donors, 87 specific T cell lines in total; for Responding donors (%): four healthy donors, T cell lines amplified with pool of 18 FVIII peptides; for HLA restriction (%) DP / HLA restriction (%) DR: percentage of restricted T cell lines, inhibition higher than 50% of ELISPOT count; for HLA restriction (%) DP: anti-HLA-DP (B7/21) 10 μg/ml; for HLA restriction (%) DR: anti-HLA-DR (L243) 10 μg/ml; for Protein specificty: recognition of rFVIII loaded on autologous DCs by peptide-specific T cell lines
Experimental: T cells were incubated with autologous DCs alone (control) or with DCs incubated with rFVIII (0.2 µM), ovalbumin (3 µM), and KLH (1 µM) or PBMCs for FVIII peptides (10 µg/ml) in MultiScreen 96-well plates (Merck Millipore) previously coated with 2.5 µg/mL of anti-human IFN-γ monoclonal antibody (mAb; 1-D1K; Mabtech). The T cell lines and APCs were plated at equal number for both stimulated and unstimulated control conditions. […] The spot number was determined by using the ELISPOT Reader System (Autoimmun Diagnostika, Ebinger, Germany). HLA restriction was assessed using monoclonal antibodies (10 μg/ml) specific to HLA-DP (B7/21), HLA-DQ (SPVL3), or HLA-DR (L243).
Based on the T cell epitope prediction software NetMHCpan4.0 ([23]), we selected 63 20-mer peptides that are predicted for their ability to bind promiscuously, with a percentile score below 10%, at least four HLA class II molecules from a selection of 15 preponderant HLA-DR alleles in our panel (as shown in ST1). The predicted peptides spread all along the full-length FVIII sequence and account for more than 50% of its amino acid coverage. A total of 16 healthy donors with unrelated HLA typing (ST2) were used as sources of T cells to identify FVIII-specific CD4 T cell epitopes. Specific T cell lines were generated by in vitro T cell culture using FVIII and KLH. The peptide specificity of the T cell lines raised against FVIII was assessed by two independent IFN-γ ELISPOT using peptide pools and individual peptides. All donors responded to rFVIII with a total of 409 identified rFVIII-specific T cell lines (Figure 4A). The mean of CD4 T cell precursors was 6.5 cells/M (Figure 4B). Each of the 63 FVIII peptides induced a T cell response in at least one of the donors tested, among the 16 healthy donors tested, with 872 peptide-specific T cell lines identified (Figure 4C). The CD4 T cell epitopes identified were ranked based on their donor coverage capacity (Figure 4D) and response intensity (Figure 4E). Furthermore, 18 out of 63 FVIII T cell epitopes were responsible for 50% of the total T cell response and 100% of the donor coverage. These immunoprevalent epitopes are located in the A1, A3, C1, and C2 domains of the FVIII protein (ST3). Furthermore, four independent healthy donors were used as sources of T cells to characterize the HLA restriction and to assess the reactivity of T cell lines generated with the 18 peptides toward rFVIII. T cell lines were amplified in vitro for 28 days through stimulation with the pool of 18 peptides and then tested through IFN-γ ELISPOT. All four healthy donors tested responded to the pool of 18 FVIII peptides selected, with a total of 87 specific T cell lines identified. Moreover, 16 out of 18 FVIII peptides in the pool generated a specific T cell response among the four donors. A total of 14 of the T cell peptides were tested for recognition of rFVIII-loaded on autologous DCs, and it was confirmed that they were part of the naturally processed FVIII peptides. HLA restriction was assessed by introducing anti-HLA-DR, anti-HLA-DP, and anti-HLA-DQ antibodies. None of the peptides tested was HLA-DQ restricted. Eight peptides were exclusively HLA-DR-restricted, one peptide was HLA-DP, and seven were promiscuously presented on both HLA-DR and HLA-DP molecules (ST4). […] Furthermore, the 18 FVIII peptides selected were ulteriorly tested in an in vitro binding assay to six HLA-DRB1 molecules (as described in ST5).
Four healthy donors were used as the source of CD4 T cells, which were amplified in vitro with the pool of 18 FVIII peptides selected for study. In an initial IFN-γ ELISPOT assay, we screened each of the 18 peptides individually to identify any positive T cell responses to both the full-length FVIII protein (protein specificity) as well as the specific peptide inducing the response. […]

Sequence	Ratio IC50 DRB1*1101 [1]	Ratio IC50 DRB1*1501 [2]	Ratio IC50 DRB1*0101 [3]	intensity (%) [4]	Responding donors (%) [4] [%]	HLA restriction (%) DP [4] [%]	HLA restriction (%) DR [4] [%]	Protein specificty [4]
LSHVDLVKDLNSGLIGALLV [P178-197, 20-mer FVIII peptide, A1 domain]	0.1	95	1.7	4,6%	75	50	50	+
DHLFNIAKPRPPWMGLLGPT [P75-94, 20-mer FVIII peptide, A1 domain]	1.8	0.0	747	1,1%	25	100	–	+
VHSIFLEGHTFLVRNHRQAS [P285-304, 20-mer FVIII peptide, A1 domain]	0.0	11	163	3,4%	50	–	100	+
ATRRYYLGAVELSWDYMQSD [P20-39, 20-mer FVIII peptide, A1 domain]	0.8	–	–	4,6%	50	37	63	+
KKEEYKMALYNLYPGVFETV [P1986-2005, 20-mer FVIII peptide, A3 domain]	–	0.4	182	1,1%	25	–	100	+
SLYISQFIIMYSLDGKKWQT [P2114-2133, 20-mer FVIII peptide, C1 domain]	0.4	4	0.2	3,4%	50	33	66	+
KEPFSWIKVDLLAPMIIHGI [P2084-2103, 20-mer FVIII peptide, C1 domain]	–	–	–	19,5%	100	47	53	+
PPIIARYIRLHPTHYSIRST [P2161-2180]	0.4	0.05	1	9,2%	75	19	81	+
HPQSWVHQIALRMEVLGCEA [P2328-2347, 20-mer FVIII peptide, C2 domain]	2	–	1.6	1,1%	25	–	100	+
KARLHLQGRSNAWRPQVNNP [P2226-2245, 20-mer FVIII peptide, C2 domain]	1.9	0.6	0.2	12,6%	50	23	77	+
RHYFIAAVERLWDYGMSSSP [P1715-1734, 20-mer FVIII peptide, A3 domain]	–	77	20.4	18,4%	75	–	100	+
INGYIMDTLPGLVMAQDQRI [P1940-1959, 20-mer FVIII peptide, A3 domain]	0.5	–	6	1,1%	25	–	100	–
LGQFLLFCHISSHQHDGMEA [P322-341, 20-mer FVIII peptide, A1 domain]	0.05	0.05	–	4,6%	50	–	100	+
